Reference: patent publication US20130085133A1, “ANTI-VIRAL TREATMENT AND ASSAY TO SCREENFOR ANTI-VIRAL AGENT” (Sourthern Research Institute Office of Commercialization …, priority 2010, published 2013)

Columns and labels:
[1] = cytotoxicity assay (percent viability of HEp-2 cells, Cell Titer-Glo); details: human, HEp-2 cells
Description: (§1) Test compounds were evaluated by measuring their antiviral activity, cell toxicity, and selectivity. Test compounds were serially diluted in a plate to plate matrix or “stacked plate” matrix. All 320 compounds in a source plate were diluted together resulting in a 10 point dose response dilution series. It was visualized as a serial dilution series proceeding vertically through a stack of plates with the high dose plate on top and the low dose plate on the bottom.
(§2) Following the six day incubation period, the assay plates were equilibrated to room temperature for 30 min and an equal volume (30 μL) of Cell Titer-Glo reagent (Promega Inc.) was added to each well using a WellMate (Matrix, Hudson, N.H.) and plates were incubated for an additional 10 min at room temperature. At the end of the incubation, luminescence was measured using a Perkin Elmer Envision™ multi-label reader (PerkinElmer, Wellesley, Mass.) with an integration time of 0.1 s.
(§3) Data was analyzed using ActivityBase software (IDBS, Inc, Guilford, UK). thirty two control wells containing cells only and twenty four wells containing cells and virus were included on each assay plate and used to calculate Z′ value for each plate and to normalize the data on a per plate basis. […] Eight ribavirin positive control wells were included on each plate for quality control purposes, but were not used in Z′ calculations. […] In the toxicity assay, results are described as percent viability and the calculation is the same.
(§4) An EC50 (for CPE inhibition) and IC50 (for cell viability) were calculated for each substance using the 4 parameter Levenburg-Marquardt algorithm with parameter A locked at 0 and parameter B locked at 100. Standard deviation, normalized chi2 and hill slope were used to evaluate the curves. Values were not extrapolated beyond the tested range of concentrations.

[2] = tested on: RSV, Long strain; assay: virus titer Reduction (VTR) assay, progeny virus TCID50 in HEp-2 cells; format: cell-based, respiratory syncytial virus (RSV); details: human respiratory syncytial virus, 48 h; for log reduction at 3 µg/mL: 3 ug/ml compound, read-out: TCID-50 Reduction @ 3 ug/ml; for log reduction at 6 µg/mL: 6 ug/ml compound, read-out: TCID-50 Reduction 6 @ ug/ml; for log reduction at 12 µg/mL: 12 ug/ml compound, read-out: TCID-50 Reduction 12 @ ug/ml; for log reduction at 25 µg/mL: 25 ug/ml compound, read-out: TCID-50 Reduction 25 @ ug/ml; for log reduction at 5 µg/mL: 5 ug/ml compound, read-out: TCID-50 Reduction @ 5 ug/ml; for log reduction at 50 µg/mL: 50 ug/ml compound, read-out: TCID-50 Reduction @ 50 ug/ml
Description: Four concentrations of each compound were evaluated (Table 3). Briefly, the four concentrations of test compounds, HEp-2 cells (8×10^3 per well) and RSV, Long strain (MOI=0.9) were plated in 96 well microtiter plates. The plates were incubated for 48 hours. Fifteen (15) μl of 10-fold serial dilution of progeny virus containing medium from respective samples (test compound treated or untreated) was transferred to infect fresh HEp-2 cells (2×10^3 cells per well) in a 384 well format. Plates were incubated for an additional 6 days and luminescence was measured using Cell Titer-Glo reagent (Promega Inc.) to determine cell viability. […] A well showing lesser than 50% cell viability was regarded as positive for virus infection. Four replicates for each virus dilution were analyzed and the number of virus positive wells (out of 4) was plotted versus the dilution. TCID50 was calculated to be the dilution that produced two positive wells out of four using ActivityBase software (IDBS, Inc, Guilford, UK).

[3] = tested on: respiratory syncytial virus (RSV) strain Long; assay: microbe, parasite or virus in culture; details: human respiratory syncytial virus, HEp-2, 144 h
Description: The assay measures RSV virus-induced CPE in HEp-2 cells using cell viability as the end point.
Two vials of RSV (strain Long) containing 1×10^7 pfu/mL was thawed using an Eppendorf thermomixer for 13 min at 15° C., with shaking at 350 rpm. […] The cells were incubated for 18-20 h at 37° C., 5% CO2, 90% relative humidity. The medium was aspirated and the cells washed with 10 mL PBS without Mg^2+ or Ca^2+. Cells were harvested from flasks using 0.25% trypsin-EDTA. The cells were resuspended in a freezing medium of 95% fetal calf serum and 5% DMSO to a final cell density of 2×10^6 cells/mL. One mL aliquots of this virus infected cell suspension were dispensed to cryovials and cells were rate frozen to −80° C. Frozen infected cells were then transferred to −150° C. for long term storage.
as §1
Cells were harvested and resuspended to 80,000 cells per ml in Complete DMEM/F12.
Cells were thawed in a room temperature water bath with gentle agitation. The tube was inverted 5-10. Cells were diluted to 80,000 cells per ml by adding the contents of the vial to 24 ml of cold (4° C.) media.
Twenty five ul of uninfected HEp-2 cells were plated in the cell control wells. Frozen infected cells were combined with uninfected HEp-2 cells at a 1:100 ratio. Twenty five ul of the cell mixture was added to the virus control and compound wells. All cell plating was conducted using a Matrix WellMate and cells were maintained at room temperature with stirring during the plating process. The assay plates were incubated for six days at 37° C., 5% CO2 and 90% relative humidity.
as §2, §3, §4

Structure (SMILES) | CC50 at 6 days [1] | log reduction at 3 µg/mL [2] | log reduction at 6 µg/mL [2] | log reduction at 12 µg/mL [2] | log reduction at 25 µg/mL [2] | EC50 [3] | log reduction at 5 µg/mL [2] | log reduction at 50 µg/mL [2]
CCOC(=O)Cc1ccc(NC(=O)c2cc(SC)ccc2Cl)cc1 [AB00359299] | > 25 µg/mL | 1 | 1.22 | 1.99 | 2.83 | 6.76 µg/mL | – | –
COCCn1c(SC(C)C(=O)Nc2cccc(C(F)(F)F)c2)nc2ccccc21 (stereo not drawn) [AB00802246] | > 50 µM | – | – | 3.98 | 4.42 | 9.58 µM | 2.26 | 5.87
O=C(Nc1cccc(NC(=O)C23CC4CC(CC(C4)C2)C3)c1)c1ccccc1F [AB00359685] | > 25 µg/mL | 1 | 2.13 | 4.4 | 4.94 | 9.42 µg/mL | – | –
O=C(Cc1ccc(Br)cc1)Nc1ccccc1C(=O)O [AB00369287] | > 25 µg/mL | 1 | 3.31 | 4.73 | 6.57 | 9.56 µg/mL | – | –
COc1c(C)cccc1C(=O)NCCOc1ccc(Cl)cc1 [AB00368252] | > 25 µg/mL | 1 | 1.3 | 1.72 | 4.94 | 9.43 µg/mL | – | –
Cc1sc(NC(=O)c2c(F)cccc2F)nc1-c1ccccc1 [AB00309154] | > 25 µg/mL | 1.54 | 1.38 | 1.42 | 1.88 | 6.41 µg/mL | – | –
c1coc(-c2nn3c(Cn4cnc5ccccc54)nnc3s2)c1 [AB00369924] | > 25 µg/mL | 1 | 2.62 | 3.22 | 2.61 | 1.71 µg/mL | – | –
O=C(Cc1cccs1)Nc1nc2c(s1)CCCC2 [AB00313042] | > 25 µg/mL | 3.56 | 5.24 | 5.43 | 6.4 | 1.89 µg/mL | – | –
Cc1cccc(N2C(=O)CC(Cc3ccc(Cl)cc3)C2=O)c1Cl (stereo not drawn) [AB00292352] | > 25 µg/mL | 1.22 | – | 3.82 | 5.9 | 8.56 µg/mL | 2.31 | –
CC(C)=CCC1=C(O)C(=O)c2ccccc2C1=O [AB00514453] | > 50 µM | – | – | 3.33 | 4.47 | 7.23 µM | 0.06 | 4.87
Cc1ccc(N(CCCCN2C(=O)c3ccccc3C2=O)C(=O)c2cccc([N+](=O)[O-])c2)cc1 [AB00301184] | > 25 µg/mL | 1.53 | 1.67 | 1.9 | 1.88 | 2.53 µg/mL | – | –
Cc1ccccc1C(=O)N1CCCN(C(=O)c2ccccc2C)CC1 [AB00312102] | > 25 µg/mL | 1.53 | 1.86 | 2.68 | 2.39 | 3.71 µg/mL | – | –
COc1ccc(CNCCC(c2ccc(F)cc2)c2ccco2)cc1OC (stereo not drawn) [AB00362846] | > 25 µg/mL | 1 | 1.92 | 2.82 | 5.48 | 4.47 µg/mL | – | –
Cc1ccn2cc(-c3cccc(NS(=O)(=O)c4ccccc4)c3)nc2c1 [AB00356285] | > 25 µg/mL | 1.14 | 1.38 | 2.42 | 3.78 | 4.04 µg/mL | – | –
Cc1nn(-c2ccccc2)c(C)c1C(=O)C(=O)Nc1cccc(Cl)c1 [AB00785138] | > 50 µM | – | – | 4.24 | 4.56 | 7.52 µM | 1.96 | 3.87
O=C(c1cc(Cl)ccc1Cl)N1CCCN(C(=O)c2cc(Cl)ccc2Cl)CC1 [AB00311948] | > 25 µg/mL | 3.13 | – | 5.56 | 5.9 | 2.32 µg/mL | 4.64 | –
O=C1c2ccccc2C(=O)N1CCCCN(C(=O)c1cccc([N+](=O)[O-])c1)c1ccc(Cl)cc1 [AB00301782] | > 25 µg/mL | 1.55 | 1.64 | 1.42 | 0.87 | 2.01 µg/mL | – | –
COc1ccccc1CCNC(=O)c1cc2c(s1)CCCC2 [AB00367930] | > 25 µg/mL | 1.82 | 1.04 | 2.68 | 6.4 | 5.77 µg/mL | – | –
CCCn1cnc2sc(-c3ccccc3)cc2c1=O [AB00298501] | > 25 µg/mL | 1.82 | 2.38 | 2.9 | 3.78 | 3.14 µg/mL | – | –
Cc1cc(C)cc(C(=O)Nc2cccc(NC(=O)c3ccccc3C)c2)c1 [AB00353228] | > 25 µg/mL | 1.55 | 2.87 | 3.42 | 3.43 | 9.78 µg/mL | – | –
COCC(C)n1c(SC(C)C(=O)Nc2cc([N+](=O)[O-])ccc2Cl)nc2ccccc2c1=O (stereo not drawn) [AB00725538] | > 50 µM | – | – | 4.98 | 5.56 | 6.3 µM | 2.95 | 5.87
CC(=O)N(CCCCN1C(=O)c2ccccc2C1=O)c1ccc(C)cc1 [AB00300194] | > 25 µg/mL | 1.41 | – | 2.04 | 2.56 | 9.01 µg/mL | 1.83 | –
O=C(NCCSCc1c(F)cccc1Cl)c1cccc([N+](=O)[O-])c1 [AB00306112] | > 25 µg/mL | 1.85 | 1.38 | 1.68 | 2.88 | 5.86 µg/mL | – | –
COC(=O)c1c(-c2ccccc2)csc1NC(=O)c1ccccc1Cl [AB00311298] | > 25 µg/mL | 1.53 | 1.86 | 1.9 | 1.88 | 7.72 µg/mL | – | –
O=C(Cc1c(F)cccc1Cl)Nc1nc2c(s1)CCCC2 [AB00361531] | > 25 µg/mL | 1.55 | 1.74 | 3.09 | 3.78 | 0.83 µg/mL | – | –
CCOC(=O)Cc1nnc(Nc2ccc(C)cc2)c2ccccc12 [AB00285095] | > 25 µg/mL | 1 | 1.32 | 1.99 | 2.56 | 9.72 µg/mL | – | –
COCc1cc(C)nc(SCC(=O)Nc2ccccc2C(=O)c2ccccc2)c1C#N [AB00341850] | > 25 µg/mL | 1 | 2.3 | 2.41 | 2.23 | 2.19 µg/mL | – | –
